Results published in patent US8883749B2, “Transcription factor inhibitors and related compositions, formulations and methods” (The Ohio State University, priority 2009, dated 2014).

Key:
[1] = system: HPAC pancreatic cancer cells; assay: MTT cell viability assay; type: cell-based, human; details: 72 hours, 10% FBS, read-out: half-maximal inhibitory concentration (IC50), cell viability
Description: (§1) STAT3 activation is important for tumor cell proliferation and survival.
(§2) The cells were incubated at 37° C. for a period of 72 hours. 3-(4,5-Dimethylthiazolyl)-2,5-diphenyltetrazolium bromide (MTT) viability assay was done according to manufacturer's protocol (Roche Diagnostics, Mannheim, Germany). […] Half-maximal inhibitory concentrations (IC50) were determined using Sigma Plot 9.0 Software (Systat Software Inc., San Jose, Calif.).

[2] = system: MDA-MB-231 breast cancer cells; assay: MTT cell viability assay; type: cell-based, human; details: MDA-MB-231, MTT, 72 hours, 10% FBS; read-out: half-maximal inhibitory concentration (IC50), cell viability
Description: as §1, §2

[3] = system: PANC-1 pancreatic cancer cells; assay: MTT cell viability assay; type: cell-based, human; details: PANC-1, MTT, 72 hours, 10% FBS; read-out: half-maximal inhibitory concentration (IC50), cell viability
Description: as §1, §2

[4] = system: SK-BR-3 breast cancer cells; assay: MTT cell viability assay; type: cell-based, human; details: SK-BR-3, MTT, 72 hours, 10% FBS; read-out: half-maximal inhibitory concentration (IC50), cell viability
Description: as §1, §2

U373 glioblastoma cells = assay: MTT cell viability assay; type: cell-based, human; details: 72 hours, 10% FBS, read-out: half-maximal inhibitory concentration (IC50), cell viability
Description: as §1, §2

U87 glioblastoma cells = assay: MTT cell viability assay; type: cell-based, human; details: 72 hours, 10% FBS, read-out: half-maximal inhibitory concentration (IC50), cell viability
Description: as §1, §2

[5] = system: ALDH^+ subpopulation of MDA-MB-231, SUM159, and SK-BR-3 breast cancer cells; assay: ALDEFLUOR assay, percentage of ALDH+ subpopulation; type: cell-based, human; details: 10 μM, 24 hours
Excerpt: The ALDEFLUOR kit (StemCell Technologies) was used to isolate the population with high ALDH enzymatic activity as known. […] For each sample, an aliquot of cells was stained under identical conditions with […] diethylaminobenzaldehyde (DEAB), a specific ALDH inhibitor, as a ALDH^− control. Anti-human PE-CD24 and PE-Cy5-CD44 antibody (BioLegend) were used for CD44/CD24 identification and to separate ALDH^+/CD44^+/CD24^− and ALDH^−/CD44^+/CD24^+ cells when combine with ALDH staining. Analysis was performed using a FACStarPLUS (Becton Dickinion) flow cytometer.

[6] = system: ALDH^+ subpopulation of MDA-MB-231, SUM159, and SK-BR3 cells; assay: MTT cell viability assay of ALDH+ cells; type: cell-based, human; details: 1 to 10 μmol/L, 72 hours
Description: The ALDH^+ subpopulation of breast cancer cells was seeded in 96-well plates (3,000 cells/well) in triplicates in a serum-free mammary epithelial basal medium. […] MTT (Thiazolyl Blue Tetrazolium Bromide, Sigma-Aldrich) assay was used to determine the cell viability.

[7] = system: ALDH^+ subpopulation of SK-BR-3, MDA-MB-231, and SUM159; assay: Tumorsphere culture of ALDH+ cells; type: cell-based, human; details: 2.5-10 μmol/L, 10 to 15 days
Description: Tumorsphere culture was performed as previously described (4). ALDH^+ and ALDH^+/CD44^+/CD24^− cells were plated as single cells in ultra-low attachment six-well plates at a density of 50,000 viable cells/well. […] Tumorsphere growth was observed under a microscope 10 to 15 days later.

[8] = target: STAT3 phosphorylation in ALDH^+ subpopulation of MDA-MB-231, SUM159, and SK-BR-3 (Homo sapiens, UniProt P40763); assay: Western blot of ALDH+ cells; type: cell-based; details: LLL12 5 μmol/L, 24 hours
Sequence of STAT3 phosphorylation in ALDH^+ subpopulation of MDA-MB-231, SUM159, and SK-BR-3 (P40763 whole entry): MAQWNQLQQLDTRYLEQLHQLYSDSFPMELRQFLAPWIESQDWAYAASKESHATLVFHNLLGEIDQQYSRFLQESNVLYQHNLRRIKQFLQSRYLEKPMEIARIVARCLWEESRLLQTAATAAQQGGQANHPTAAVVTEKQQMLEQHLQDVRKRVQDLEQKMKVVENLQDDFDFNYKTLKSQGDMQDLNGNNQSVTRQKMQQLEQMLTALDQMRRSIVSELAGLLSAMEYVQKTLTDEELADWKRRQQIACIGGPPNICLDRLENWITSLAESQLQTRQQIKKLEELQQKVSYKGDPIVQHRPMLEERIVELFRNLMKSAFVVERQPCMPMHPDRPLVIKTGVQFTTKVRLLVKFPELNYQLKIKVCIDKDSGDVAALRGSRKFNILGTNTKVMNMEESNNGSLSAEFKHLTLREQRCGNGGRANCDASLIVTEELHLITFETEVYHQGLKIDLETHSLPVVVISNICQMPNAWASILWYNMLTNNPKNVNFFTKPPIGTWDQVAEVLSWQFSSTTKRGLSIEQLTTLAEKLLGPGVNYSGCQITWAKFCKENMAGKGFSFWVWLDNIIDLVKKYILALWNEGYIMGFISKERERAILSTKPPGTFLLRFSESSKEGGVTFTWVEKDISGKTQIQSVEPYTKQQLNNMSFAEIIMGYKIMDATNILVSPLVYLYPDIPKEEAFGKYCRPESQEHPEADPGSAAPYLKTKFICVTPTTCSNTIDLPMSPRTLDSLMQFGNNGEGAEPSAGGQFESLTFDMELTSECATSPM
Description: ALDH^+ and ALDH^- subpopulations, or ALDH^+/CD44^+/CD24^- and ALDH^-/CD44^+/CD24^+ subpopulations of breast cancer cells were separated by flow cytometer. After sorting, ALDH^+ and ALDH^+/CD44^+/CD24^- stem cells were cultured in serum-free stem cell medium in ultra-low attachment six-well plates (Corning) to maintain cancer stem cell characteristics. ALDH^-, ALDH^-/CD44^+/CD24^+ cells and unseperated cells were cultured in regular medium and replaced with identical stem cell medium for three days before being harvested.

ALDH^− cells = assay: Effects on ALDH- cells; type: cell-based, human

Row | IC50 [1] [µM] | IC50 [2] [µM] | IC50 [3] [µM] | IC50 [4] [µM] | IC50 (U373 glioblastoma cells) [µM] | IC50 (U87 glioblastoma cells) [µM] | STAT3 phosphorylation in ALDH^+ cells [8] | SMILES | ALDH^+ subpopulation percentage [5] | cell viability of the ALDH^+ subpopulation [6] | tumorsphere forming capacity [7] | effects on ALDH^− cells (ALDH^− cells)
1 | > 100 | > 100 | > 100 | > 100 | 52.5 | 55.1 | – | Cc1ccc(S(=O)(=O)OCC(=O)Nc2ccc(C(=O)O)c(O)c2)cc1 [S3I-201] | – | – | – | –
2 | – | – | – | – | – | – | reduces STAT3 phosphorylation | O=[N+]([O-])c1ccc2c(c1)S(=O)(=O)C=C2 [Stattic] | decreased the percentage of ALDH^+ subpopulation | can inhibit cell viability | can inhibit tumorsphere forming capacity | inhibitory effects
